Assay: excess molar enthalpy (molar enthalpy of mixing); xn = mol fraction of the nth substance listed
Conditions: 303.15 K, 101.3 kPa, Liquid

Cc1cccc(C)n1 [2,6-dimethylpyridine] + CCCCCCC
Conditions | excess molar enthalpy [kcal/mol]
x1 = 0.1137 | 0.114
x1 = 0.1939 | 0.16
x1 = 0.26 | 0.194
x1 = 0.313 | 0.211
x1 = 0.318 | 0.216
x1 = 0.365 | 0.226
x1 = 0.4264 | 0.237
x1 = 0.46 | 0.241
x1 = 0.5077 | 0.242
x1 = 0.58 | 0.227
x1 = 0.7064 | 0.202
x1 = 0.7851 | 0.165
x1 = 0.857 | 0.123

Cc1cncc(C)c1 [3,5-dimethylpyridine] + CCCCCCC
Conditions | excess molar enthalpy [kcal/mol]
x1 = 0.0712 | 0.0951
x1 = 0.2287 | 0.217
x1 = 0.2961 | 0.258
x1 = 0.3799 | 0.281
x1 = 0.4475 | 0.296
x1 = 0.497 | 0.293
x1 = 0.5013 | 0.294
x1 = 0.5962 | 0.283
x1 = 0.6871 | 0.249
x1 = 0.7428 | 0.219
x1 = 0.85 | 0.137

Cc1cncc(C)c1 [3,5-dimethylpyridine] + CCCCCCCC
Conditions | excess molar enthalpy [kcal/mol]
x1 = 0.1056 | 0.133
x1 = 0.2504 | 0.24
x1 = 0.3971 | 0.294
x1 = 0.4266 | 0.301
x1 = 0.4971 | 0.304
x1 = 0.5313 | 0.305
x1 = 0.5417 | 0.303
x1 = 0.6032 | 0.293
x1 = 0.7289 | 0.237
x1 = 0.8127 | 0.184
x1 = 0.914 | 0.0915

Cc1cccc(C)n1 [2,6-dimethylpyridine] + CCCCCCCC
Conditions | excess molar enthalpy [kcal/mol]
x1 = 0.108 | 0.12
x1 = 0.199 | 0.172
x1 = 0.202 | 0.182
x1 = 0.346 | 0.233
x1 = 0.413 | 0.246
x1 = 0.506 | 0.251
x1 = 0.597 | 0.246
x1 = 0.698 | 0.217
x1 = 0.708 | 0.208

Cc1cccc(C)n1 [2,6-dimethylpyridine] + CCCCCC
Conditions | excess molar enthalpy [kcal/mol]
x1 = 0.1061 | 0.1
x1 = 0.2206 | 0.171
x1 = 0.2931 | 0.202
x1 = 0.3822 | 0.215
x1 = 0.4338 | 0.221
x1 = 0.4341 | 0.22
x1 = 0.4507 | 0.226
x1 = 0.5516 | 0.223
x1 = 0.6172 | 0.215
x1 = 0.7034 | 0.191
x1 = 0.7949 | 0.141
x1 = 0.884 | 0.0844

Cc1cncc(C)c1 [3,5-dimethylpyridine] + CCCCCC
Conditions | excess molar enthalpy [kcal/mol]
x1 = 0.1064 | 0.137
x1 = 0.1889 | 0.201
x1 = 0.314 | 0.259
x1 = 0.434 | 0.275
x1 = 0.5119 | 0.278
x1 = 0.6092 | 0.26
x1 = 0.7259 | 0.214
x1 = 0.775 | 0.191
x1 = 0.8934 | 0.0978
x1 = 0.9495 | 0.0492

From the NIST ThermoML archive (doi:10.1016/j.fluid.2005.03.028)
